Experimental data taken from paper PMC12040169 (PLOS Biology, 2025).

Test: in vitro
Settings: human, hela cells, % viability

Compound	viability at 28.5 h, 10 µM (bulk resorufin, single well) [%]	viability at 28.5 h, 10 µM [%]
O=[N+]([O-])c1ccc(-n2cnc3ccccc32)c([N+](=O)[O-])c1 [CBK261120]	91.9	–
Cc1nc2cc(C(=O)N3CCC(c4ccccc4)C3)ccc2n1C (stereo not shown) [CBK281841]	–	66.5
CC(=O)Nc1cccc(NC(=O)CN(CCO)C2CCCCC2)c1 [CBK304239]	–	85.7
O=C(Cc1ccc(Cl)c(Cl)c1)N1CCC2(CCN(C(=O)c3cc(F)c(F)cc3F)C2)C1 (stereo not shown) [CBK131386]	–	95.9
COc1ccc(C(=O)[C@H]2CCCN(C(=O)C3CC3)C2)cc1 [CBK284329]	–	91.4
C=CCn1c(Cc2csc(NC(=O)c3cccc(NC(C)=O)c3)n2)n[nH]c1=S [CBK297891]	–	83.4
Cc1cc(=O)[nH]c(CCNc2cc([C@H]3C[C@@H](N)C3)nc(C3CC3)n2)n1 [CBK307651]	–	103
O=c1[nH]c2ncc(-c3cccnc3)nc2n1CCN1CCOCC1 [CBK065070]	–	103
CCCNC(=O)Cn1cnc2sc(C)c(C)c2c1=O [CBK305863]	–	88.8
CN1CCN(C(=O)c2cccc(-n3cccn3)c2)C(c2ccccc2)C1 (stereo not shown) [CBK282013]	–	90.5
COc1cccc(C(NC(=O)C2CCN(C(=O)c3ccccc3)CC2)c2ccccn2)c1 (stereo not shown) [CBK060036]	–	103
CC(C)C(=O)N1CCC2(C/C=C/C[C@H]3COCC[C@H]3NC(=O)CNC2=O)CC1 [CBK292157]	–	95.8
CCCCn1nccc1NC(=O)NC(C)c1n[nH]c(C)n1 (stereo not shown) [CBK307486]	–	99.4
Cc1nc([N+](=O)[O-])c(C(=O)OCc2ccccc2C#N)n1C [CBK293991]	–	82.1
OC(CNCC1COc2ccccc2O1)C(F)(F)F (stereo not shown) [CBK074834]	–	102
CC(=O)NCCSc1ncccc1C(F)(F)F [CBK105296]	–	101
OC1(Cn2cnc3ccccc32)CCN(Cc2ccc(F)cc2)CC1 [CBK284661]	–	85.7
CN1CCC(N2CCN(C(=O)NCC3COc4ccccc4O3)CC2)CC1 (stereo not shown) [CBK155881]	–	107
Cn1c(=O)c2c(nc(NCc3ccccc3)n2C)n(C)c1=O [CBK139872]	–	95.9
CC(=O)c1cccc(NC(=O)Cn2ncc(N3CCCC3)c(Cl)c2=O)c1 [CBK304395]	–	89.5
CCCc1cc(O)nc(SCC(=O)Nc2ccc(Cl)cc2Cl)n1 [CBK265147]	–	83.7
O=C(CCn1c(=O)oc2ccccc21)N1CC=C(c2ccc(F)cc2)CC1 [CBK295602]	–	95.8

Compound	viability at 28.5 h, 10 µM (bulk resorufin, single well) [%]	viability at 28.5 h, 10 µM [%]
O=C(O)CSCC(=O)N1CCN(c2ccc(F)cc2)CC1 [CBK057269]	–	98
COc1cc(/C=C/C(=O)NCc2ccccn2)cc(OC)c1OC [CBK264752]	–	91.5
Cc1nonc1NC(=O)Nc1ccncc1 [CBK260982]	–	94.7
Cc1n[nH]c(NNC(=O)COc2ccc(Cl)cc2)c1[N+](=O)[O-] [CBK261478]	–	98.2
CS(=O)(=O)Nc1ccccc1C(=O)NCc1ccccn1 [CBK268494]	–	106
O=C(CN1C(=O)CCC1=O)Nc1nnc(-c2ccc3c(c2)CCCC3)o1 [CBK287427]	–	80.2
CCN(CC)C(=O)CN1CCN(c2nccnc2Oc2ccc(OC)c(OC)c2)CC1 [CBK083051T]	–	103
CC(O)CNc1nccnc1-c1cccc(O)c1 (stereo not shown) [CBK037055]	–	97.6
COc1ccc(-c2csc(Nc3ccc(N)cc3)n2)cc1OC [CBK074456]	–	83.4
Cc1cc(C)n(CC(O)CN2C(=O)NC(C)(C)C2=O)n1 (stereo not shown) [CBK264811]	–	107
CN1CCN(S(=O)(=O)c2ccc3c(c2)oc(=O)c2cc(S(=O)(=O)N4CCN(C)CC4)ccc23)CC1 [CBK267206]	–	85
CC(=O)[C@H]1C[C@@H](CC(=O)N2CCN(c3ccc(C(F)(F)F)cc3)CC2)C1(C)C [CBK091330]	–	93.6
OCCOc1ccc(OCCOc2nccnc2N2CCNCC2)cc1 [CBK014349G]	–	93.9
Cc1nc(C)c(C(=O)N2CCC(c3cc4cccnc4[nH]3)CC2)s1 [CBK284998]	–	88.5
COC(=O)c1ccc(NC(=O)N2CCCC2c2nc(-c3ccccc3)c3ccccn23)cc1 (stereo not shown) [CBK046725]	–	102
CCn1nc(C)c(-c2cncn2CC(C)n2nc(C)cc2C)c1C (stereo not shown) [CBK281777]	–	109
CC(C)(C)C(=O)N1CCC(c2nnc3n2CCCCC3)CC1 [CBK285311]	–	88.7
COC(=O)c1ccsc1NS(=O)(=O)c1ccc(Oc2ccccc2)cc1 [CBK039064]	–	108
CN(C)C(=O)CCc1nc(-c2ccccn2)no1 [CBK297735]	–	88.3
CC(=O)N(C)c1nc(-c2cccc(N(C)C)c2)ccc1C(=O)Nc1ccc(C(F)(F)F)cc1 [CBK076623]	–	98.5
O=C(Nc1ccc2oc(-c3cccnc3)nc2c1)c1ccc(N2CCOCC2)c([N+](=O)[O-])c1 [CBK268664]	–	100
CC(C)(C)c1[nH]c2ncccc2c1CN1CCSCC1 [CBK285340]	–	93.6

Compound	viability at 28.5 h, 10 µM (bulk resorufin, single well) [%]	viability at 28.5 h, 10 µM [%]
CC(Oc1ccc(Br)cc1Cl)C(=O)NCCCN1CCCC1=O (stereo not shown) [CBK268138]	–	98.7
COCCNC(=O)c1ccc(-c2ccccc2)nc1N(C)C [CBK106049]	–	99.8
Cc1cc(NC(=O)CN2CCCC2CC(O)c2ccccc2)no1 (stereo not shown) [CBK305139]	–	88.8
COc1cc(F)ccc1-c1cnc(N)c2ncccc12 [CBK067585]	–	81.4
O=C(NCCN1CCOCC1)C1CCCN(c2nc3c(-c4ccccc4)csc3c(=O)[nH]2)C1 (stereo not shown) [CBK215509]	–	106
COc1ccc(CCCN2CCC(C(=O)NC(=O)Nc3cc(OC)c(OC)c(OC)c3)CC2)cc1 [CBK034855]	–	86.3
O=C(COc1ccc(-c2ccccc2)cc1Cl)N1CCN(C(=O)C2CC2)CC1 [CBK295640]	–	96.8
O=C1CCC(=O)N1CCOc1nccnc1OC1CCN(Cc2ccc([N+](=O)[O-])cc2)CC1 [CBK084343]	–	95.7
COC(=O)c1c(NC(=O)CSc2nc[nH]n2)sc2c1CCCC2 [CBK267222]	–	81.6
COc1cccc2c(C(C(=O)O)N3CCN(c4ccc(C(F)(F)F)cn4)CC3)c[nH]c12 (stereo not shown) [CBK286857]	–	89.7
CN(C)CC(=O)N1c2ccccc2CCc2ccc(NC(=O)c3ccc([N+](=O)[O-])cc3)cc21 [CBK278207C]	–	87.4
c1ccc(OCc2nn3c(Cn4cnc5ccccc54)nnc3s2)cc1 [CBK268446]	–	99.2
CC(C)C1SC(=NC2CC3CCC2C3)N(C)C1=O (stereo not shown) [CBK076727]	–	90.6
O=C1CC[C@@H](NCc2ccco2)[C@H](c2cc(F)cc(F)c2)N1 [CBK283127]	–	102
O=C(/C=C/c1ccccc1)Nc1cccc(C(=O)O)c1 [CBK287193]	–	94
Cc1cc(-c2cc(=O)n(Cc3ccccc3F)nc2C2CC2)on1 [CBK284366]	–	87.2
Cc1nc2c(c(=O)[nH]1)CN(Cc1ccc(Cl)cc1)CC2 [CBK282415]	–	84.5
Cc1nnnn1-c1cc(NC(=O)NCCCn2ccnc2)ccc1F [CBK305349]	–	92.1
CC(=O)OCc1c(C)cc(C)c(CN(C)C(C)c2ccon2)c1C (stereo not shown) [CBK306780]	–	79.3
O=C(Nc1ccccc1)Nc1nc(=O)n(-c2ccccc2)s1 [CBK070710]	–	93
CC(CCCc1ccccc1)NC(=O)c1cc2c([nH]c1=O)CCC2 (stereo not shown) [CBK281528]	–	87.6
C=CCOc1ccc(CNc2cccc(C(=O)O)c2)cc1OC [CBK074468]	–	98.5

Compound	viability at 28.5 h, 10 µM (bulk resorufin, single well) [%]	viability at 28.5 h, 10 µM [%]
CN(C)c1ccc(-c2nccnc2NS(=O)(=O)c2ccc3ccccc3c2)cc1 [CBK050794]	–	93.4
COc1cc(C(=O)N2CCC3(CCN(C(=O)Cc4c[nH]c5ccccc45)C3)C2)cc(OC)c1OC (stereo not shown) [CBK131448]	–	86.7
COc1ccc(C(=O)N(Cc2ccco2)Cc2cc3ccccc3nc2O)cc1 [CBK269594]	–	95.9
O=C(CN1C(=O)N2CCN=C2c2ccccc21)NC1CCCC1 [CBK283959]	–	100
COc1ccc(/C=C2\S/C(=N\Cc3ccccc3)N(Cc3ccccc3)C2=O)cc1C(=O)O [CBK262715]	–	104
CC(C)(CNC(=O)CN1CCOCC1)NC(=O)OC(C)(C)C [CBK089350]	–	88.7
CNS(=O)(=O)c1c(C)nn(-c2ccccc2)c1C [CBK086715]	–	102
NS(=O)(=O)c1ccc(S(=O)(=O)NCCc2c[nH]c3ccccc23)cc1 [CBK266691]	–	82.2
c1ccc(SCCN2CCOCC2)cc1 [CBK027679]	–	97.8
O=C(N/N=C/c1ccc(C(=O)O)cc1)C(=O)Nc1cccc(Br)c1 [CBK262185]	–	88.6
COc1cccc(/C=C2/SC(=S)NC2=O)c1OCCCOc1ccccc1C [CBK264442]	–	98.9
Cc1cc(C(=O)NCc2cccnc2N(C)C2CCCCC2)[nH]n1 [CBK306668]	–	104
COc1ccc(/N=C2\NC(=O)/C(=C\C=C\c3ccccc3)S2)cc1 [CBK263417]	–	94.2
Cc1ccn(CCNC(=O)c2cc3ccc(F)cc3[nH]2)n1 [CBK283209]	–	91.9
Cc1ccc(O)cc1CC[C@@H]1CC(=O)CC2(C)C1CC[C@]2(O)C(=O)COC(=O)CCC(=O)O (stereo partly shown) [CBK007270]	–	119
Cc1csc(-c2ccc(C(=O)N3CCN(C)CC3)c(N3CCOCC3)n2)c1 [CBK106195]	–	90.8
Cc1nccn1CCC1CCN(C(=O)c2cn3ccccc3n2)CC1 [CBK281868]	–	91.2
CCN(CC)CCN1CCN(c2cc(-c3ccc(SC)cc3)ncn2)CC1 [CBK091203]	–	93.3
COCCN(Cc1cnn(C)c1)C(=O)Cc1coc2cc(C)c(Cl)cc12 [CBK307435]	–	108
COc1cc(NC(=S)NCc2ccc(S(N)(=O)=O)cc2)cc(OC)c1 [CBK264935]	–	108
OCCN1CCN(C(c2cccs2)c2ccc3cccnc3c2O)CC1 (stereo not shown) [CBK296964]	–	76.7
c1ccc2nc(N3CCCC3)c(Sc3nccs3)nc2c1 [CBK093794]	–	110
